{
  "source": "patent US10745365B2",
  "about": "“Luminogenic and fluorogenic compounds and methods to detect molecules or conditions” (Promega Corporation, priority 2005, dated 2020)",
  "key": {"[1]": {"biological_target": "T1, human recombinant monoamine oxidase B (MAO B) (Homo sapiens, UniProt P27338)", "T1 construct": "purchased Sigma Chemical Company M-7441; host or cells: baculovirus infected insect cells (microsomes)", "T1 sequence (P27338 1-520)": "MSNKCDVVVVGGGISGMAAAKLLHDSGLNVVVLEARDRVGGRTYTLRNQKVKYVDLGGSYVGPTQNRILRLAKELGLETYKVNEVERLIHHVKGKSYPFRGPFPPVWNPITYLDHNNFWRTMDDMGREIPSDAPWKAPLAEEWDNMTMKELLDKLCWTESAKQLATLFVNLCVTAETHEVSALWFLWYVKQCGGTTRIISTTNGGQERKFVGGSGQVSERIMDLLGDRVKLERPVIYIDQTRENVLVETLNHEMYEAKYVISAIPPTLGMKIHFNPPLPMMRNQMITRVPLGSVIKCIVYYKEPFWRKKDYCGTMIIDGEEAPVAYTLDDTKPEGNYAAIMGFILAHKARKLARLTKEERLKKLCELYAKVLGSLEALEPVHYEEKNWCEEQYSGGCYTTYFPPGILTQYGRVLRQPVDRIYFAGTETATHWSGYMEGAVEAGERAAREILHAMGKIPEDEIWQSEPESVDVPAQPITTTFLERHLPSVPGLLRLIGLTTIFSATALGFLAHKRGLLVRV", "assay": "biochemical"}, "[2]": {"biological_target": "T2, human recombinant monoamine oxidase A (MAO A) (Homo sapiens, UniProt P21397)", "T2 sequence (P21397 1-527)": "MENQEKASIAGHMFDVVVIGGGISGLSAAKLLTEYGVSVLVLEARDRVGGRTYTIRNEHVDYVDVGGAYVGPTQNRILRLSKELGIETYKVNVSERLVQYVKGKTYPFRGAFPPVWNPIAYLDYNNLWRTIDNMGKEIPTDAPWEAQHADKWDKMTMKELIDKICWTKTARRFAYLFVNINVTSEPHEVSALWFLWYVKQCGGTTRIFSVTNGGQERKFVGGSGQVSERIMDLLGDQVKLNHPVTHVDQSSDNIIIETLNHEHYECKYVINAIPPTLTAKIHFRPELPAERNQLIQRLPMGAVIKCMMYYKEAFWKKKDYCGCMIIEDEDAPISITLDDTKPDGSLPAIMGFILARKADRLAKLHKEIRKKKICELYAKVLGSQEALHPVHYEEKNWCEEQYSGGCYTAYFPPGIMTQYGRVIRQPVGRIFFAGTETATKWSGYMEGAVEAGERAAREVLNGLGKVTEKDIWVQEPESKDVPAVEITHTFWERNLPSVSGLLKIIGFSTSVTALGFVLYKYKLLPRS", "assay": "MAO A inhibition (IC50) with substrate MAO-11", "type": "biochemical", "design": "purchased Sigma Chemical Company M-7316; host or cells: baculovirus infected insect cells (microsomes)"}, "[3]": {"biological_target": "T3, equine alcohol dehydrogenase (Equus caballus, UniProt P00327)", "T3 construct": "purchased Sigma Chem. Co. A9589", "T3 sequence (P00327 whole entry)": "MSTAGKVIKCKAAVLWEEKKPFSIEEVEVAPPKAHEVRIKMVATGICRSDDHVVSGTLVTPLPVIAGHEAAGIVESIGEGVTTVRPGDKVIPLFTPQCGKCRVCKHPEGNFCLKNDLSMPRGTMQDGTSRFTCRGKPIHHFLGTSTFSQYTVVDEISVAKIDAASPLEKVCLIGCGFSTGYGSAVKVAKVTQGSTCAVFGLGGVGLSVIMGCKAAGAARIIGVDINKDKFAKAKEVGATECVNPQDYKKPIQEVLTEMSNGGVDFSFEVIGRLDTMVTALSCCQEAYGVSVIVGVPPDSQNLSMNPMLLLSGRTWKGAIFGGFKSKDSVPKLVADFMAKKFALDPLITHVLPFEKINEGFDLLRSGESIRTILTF", "assay": "Effect of inhibitors on the conversion of luciferol by equine alcohol dehydrogenase", "type": "biochemical", "settings": "luciferol + equine ADH + NAD+ with 10 μl inhibitor solution, 37° C., 30 min; duplicates #1, #2 (controls 1023, 1087)", "experimental": "Trichloroethanol solution: A 0.48 ml sample of 2,2,2, trichloroethanol (Aldrich T5480-5) was dissolved in water.\nReactions were initiated by addition of 1.5 μl of luciferol solution. Upon addition of the luciferol solution, the reactions were mixed and placed at 37° C."}, "CYP2C19": {"biological_target": "CYP2C19 (Homo sapiens, UniProt P33261)", "sequence (P33261 whole entry)": "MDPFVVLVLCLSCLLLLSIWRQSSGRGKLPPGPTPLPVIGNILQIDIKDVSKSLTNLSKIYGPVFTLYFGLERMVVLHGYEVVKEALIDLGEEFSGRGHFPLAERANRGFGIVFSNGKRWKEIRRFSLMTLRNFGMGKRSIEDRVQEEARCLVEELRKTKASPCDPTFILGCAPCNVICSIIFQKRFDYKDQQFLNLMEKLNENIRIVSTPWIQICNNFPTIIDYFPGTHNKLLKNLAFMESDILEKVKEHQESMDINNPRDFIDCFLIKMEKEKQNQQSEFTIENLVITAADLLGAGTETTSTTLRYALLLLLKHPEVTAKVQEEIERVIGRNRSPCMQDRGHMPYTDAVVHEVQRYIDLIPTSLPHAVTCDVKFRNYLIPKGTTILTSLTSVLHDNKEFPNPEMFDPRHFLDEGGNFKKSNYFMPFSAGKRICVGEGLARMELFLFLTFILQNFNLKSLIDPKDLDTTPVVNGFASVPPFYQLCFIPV", "assay": "biochemical"}, "[4]": {"assay": "Control without MAO: fluorescence of the fluorogenic derivative (MAO substituted with H2O)", "experimental": "The fluorescent signal was then measured (excitation/emission=355/460 nm) on a Fluoroskan Ascent plate fluorometer.\nThis 90 μl contained 35 μl 200 mM Tricine pH 8.3, 35 μl 200 mM Tricine pH 8.7 (or water), 10 μl 200 mM MgSO4, and 10 μl of each substrate dilution."}, "[5]": {"tested_on": "human hepatocytes (CYP3A activity)"}, "[6]": {"biological_target": "T4, QuantiLum Luciferase (firefly luciferase) (Photinus pyralis, UniProt P08659)", "T4 construct": "purchased Promega Corporation El 70", "T4 sequence (P08659 whole entry)": "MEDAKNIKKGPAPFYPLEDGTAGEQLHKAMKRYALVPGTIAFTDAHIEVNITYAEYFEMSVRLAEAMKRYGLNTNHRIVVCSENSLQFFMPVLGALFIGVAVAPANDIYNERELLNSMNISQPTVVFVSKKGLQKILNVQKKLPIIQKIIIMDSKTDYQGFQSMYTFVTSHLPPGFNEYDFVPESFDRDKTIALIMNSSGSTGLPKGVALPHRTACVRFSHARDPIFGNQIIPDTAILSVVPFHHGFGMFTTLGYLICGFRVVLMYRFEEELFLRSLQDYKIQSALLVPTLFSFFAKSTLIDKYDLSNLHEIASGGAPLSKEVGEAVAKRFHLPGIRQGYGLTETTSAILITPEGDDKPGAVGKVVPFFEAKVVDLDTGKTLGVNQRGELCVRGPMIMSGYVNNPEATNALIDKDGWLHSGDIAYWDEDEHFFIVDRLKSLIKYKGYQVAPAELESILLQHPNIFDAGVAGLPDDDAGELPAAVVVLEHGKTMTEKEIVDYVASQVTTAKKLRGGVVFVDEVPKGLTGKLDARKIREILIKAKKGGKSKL", "assay": "Luminescence spectra of fluoroluciferins", "type": "biochemical", "settings": "pH 7.4", "experimental": "All compounds except fluoroluciferin and ATP were purchased from Sigma Chemical. ATP was purchased from Amersham/Invitrogen.\nSpectra were measured using 0.5s integration with 1 nm increments on a Spex Fluorolog."}, "[7]": {"biological_target": "T4, QuantiLum Luciferase (firefly luciferase)", "assay": "pH titration of 7′-fluoroluciferin luciferase reaction", "type": "biochemical"}, "[8]": {"biological_target": "T4, QuantiLum Luciferase (firefly luciferase)", "assay": "ATP titration of luciferase reactions with luciferin and fluoroluciferins", "type": "biochemical", "experimental": "AU compounds except 5’-fluoroluciferin and DTT were purchased from Sigma Chemical. To some of this reagent 5 mM ATP (Amersham/Invitrogen) was added, then serially diluted by half-logs to 0.05 mM. Reactions were initiated by adding equal volumes (0.1 ml) of reagent and DMEM medium (Gibco/Invitrogen) containing 0.1% Prionex® (Pentapharm) and 1.4×10-5 mg/ml QuantiLum™ Luciferase (Promega Corporation).\nFor ATP titrations for 7′-fluoroluciferin, reagent was created containing 200 mM HEPES, 200 mM PIPES, 1 mM CDTA, 0.5% Tergitol NP-9, 0.03% Benzyl dodecyldimethyl ammonium bromide, 30 mM thiourea, 10 mM magnesium sulfate, and 0.15 mM 7′-fluoroluciferin. This solution was separated into 3 parts and pH of the reagents were 7.4, 7.2 and 6.7. To some of this reagent, 10 mM ATP (Amersham/Invitrogen) was added. The ATP was serially diluted by quarter-logs from 10 mM to 0.32 mM.\nReactions were initiated by adding equal volumes (0.03 ml) of reagent and DMEM medium (Gibco/Invitrogen) containing 0.1% Prionex® (Pentapharm) and 1.4×10-5 mg/ml QuantiLum™ Luciferase (Promega Corporation).\nLuminescence was measured for 0.5 seconds per well using Berthold Orion luminometer."}, "[9]": {"biological_target": "T5, human recombinant flavin-containing monooxygenase 3 (FMO 3) (Homo sapiens, UniProt P31513)", "T5 construct": "purchased Sigma Chemical Company F-5053; host or cells: baculovirus infected insect cells (microsomes)", "T5 sequence (P31513 1-532)": "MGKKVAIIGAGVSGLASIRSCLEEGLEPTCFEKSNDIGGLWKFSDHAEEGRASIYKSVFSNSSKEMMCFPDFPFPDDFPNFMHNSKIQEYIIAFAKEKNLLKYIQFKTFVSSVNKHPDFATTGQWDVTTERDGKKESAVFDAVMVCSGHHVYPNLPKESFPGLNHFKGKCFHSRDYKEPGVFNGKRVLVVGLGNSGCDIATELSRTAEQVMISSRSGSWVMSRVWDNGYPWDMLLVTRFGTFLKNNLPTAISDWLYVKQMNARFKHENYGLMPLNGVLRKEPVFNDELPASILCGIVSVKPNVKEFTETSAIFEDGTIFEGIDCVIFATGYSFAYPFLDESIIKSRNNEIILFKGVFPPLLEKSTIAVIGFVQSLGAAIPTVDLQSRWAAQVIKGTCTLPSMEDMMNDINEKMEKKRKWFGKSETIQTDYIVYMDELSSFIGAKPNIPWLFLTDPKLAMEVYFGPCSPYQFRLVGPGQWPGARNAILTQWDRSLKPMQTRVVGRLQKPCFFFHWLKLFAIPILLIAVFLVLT", "assay": "Two-step luminescent FMO 3 assay", "type": "biochemical", "settings": "fit of Table 33"}, "[10]": {"biological_target": "T2, human recombinant monoamine oxidase A (MAO A)", "assay": "Two-step bioluminogenic MAO A substrate assay"}},
  "note": "Several values for one entry are separate records, joined by “and”; a condition that tells them apart may be missing. Equal values may be shown once.",
  "data": [
    {"smiles": "NCCc1ccccc1", "note": "[phenethylamine]", "values": [
      {"measurement": "IC50", "setting": "[1]", "value": "20 ± 2", "unit": "µM"},
      {"measurement": "IC50", "setting": "[2]", "value": "134 ± 9", "unit": "µM"}
    ]},
    {"smiles": "c1cn[nH]c1", "note": "[Pyrazol, pyrazol]", "values": [
      {"measurement": "Relative Light Units", "setting": "[3]", "value": "516.4 Relative Light Units and 490.7 Relative Light Units"}
    ]},
    {"smiles": "NNC(=O)c1ccncc1", "note": "[isoniazid]", "values": [
      {"measurement": "IC50", "setting": "CYP2C19", "value": 76, "unit": "µM"}
    ]},
    {"smiles": "CNCCCOc1ccc2c(C)cc(=O)oc2c1", "note": "[MAO-F3, 7-(4-methyl-3-N-methylaminopropoxy)coumarin]", "values": [
      {"measurement": "no MAO fluorescent signal", "setting": "[4]; [MAO-F3] 0.21 μM", "value": 48},
      {"measurement": "no MAO fluorescent signal", "setting": "[4]; [MAO-F3] 863.75 μM", "value": 6461}
    ]},
    {"smiles": "CC(=O)N1CCN(c2ccc(OCC3COC(Cn4ccnc4)(c4ccc(Cl)cc4Cl)O3)cc2)CC1", "note": "(stereo not shown) [ketoconazole]", "values": [
      {"measurement": "CYP3A-dependent luminescence in hepatocytes", "setting": "[5]", "value": "inhibition by ketoconazole of both basal and rifampicin-induced activity"}
    ]},
    {"smiles": "O=C(O)[C@H]1CSC(c2nc3ccc(O)c(F)c3s2)=N1", "note": "[7′-fluoroluciferin]", "values": [
      {"measurement": "red shift of luminescence λmax from regular luciferin", "setting": "[6]", "value": "approximately 21 nm"},
      {"measurement": "pH optima of firefly luciferase reaction", "setting": "[7]", "value": "~7.5"},
      {"measurement": "ATP requirement of luciferase reaction", "setting": "[8]", "value": "requirement for ATP is much higher"}
    ]},
    {"smiles": "CNCCCOc1ccc2nc(C3=N[C@@H](C(=O)O)CS3)ccc2c1", "note": "[MAO-7, 6-(3-methylaminopropoxy)quinolinyl-luciferin]", "values": [
      {"measurement": "signal-to-background ratio at the Km value", "setting": "[9]", "value": "about 8.5"},
      {"measurement": "MAO specificity by ratio RLUmax/Km", "setting": "[10]; Table 25", "value": "more specific substrate for MAO A"},
      {"measurement": "signal-to-background ratio at the Km value", "setting": "[10]; fit of Table 22", "value": "about 95"}
    ]}
  ]
}
